Patent US8557741B2, “3-aminocarbonyl-substituted benzoylcyclohexanediones and their use as herbicides” (Bayer CropScience AG, priority 2010, dated 2013)

Experiments:
Assay type in all cases: in vivo
[1] = system: Abutilon theophrasti; test: Pre-emergence herbicidal action against harmful plants; settings: Abutilon theophrasti, 504 h, read-out: Herbicidal action against ABUTH; for pest or weed control at 320 g/ha: dosage 320 g/ha, visual assessment after 3 weeks (Table A); for pest or weed control at 80 g/ha: dosage 80 g/ha, visual assessment after 3 weeks (Table B)
Excerpt: (§1) The abbreviations used in the tables below denote: • ABUTH Abutilon theophrasti • AMARE Amaranthus retroflexus • ECHCG Echinochloa crus galli • PHBPU Phartoitis purpureum • STEME Stellaria media • ALOMY Alopecurus myosuroides • AVEFA Avena fatua • MATIN Matricaria inodora • POLCO Fallopia convolvulus • VERPE Veronica persica 1. Pre-emergence Herbicidal Action Against Harmful Plants Seeds of monocotyledonous and dicotyledonous weed plants and crop plants are placed in wood-fibre pots in sandy loam and covered with soil. The compounds according to the invention and the compounds known from the prior art, formulated in the form of wettable powders (WP) or as emulsion concentrates (EC), are then applied as aqueous suspension or emulsion at a water application rate of 600 to 800 I/ha (converted) with the addition of 0.2% of wetting agent to the surface of the covering soil. After the treatment, the pots are placed in a greenhouse and kept under good growth conditions for the test plants. The visual assessment of the damage to the test plants is carried out after a trial period of 3 weeks by comparison with untreated controls (herbicidal activity in percent (%): 100% activity=the plants have died, 0% activity=like control plants, —=not tested). The results of comparative table A show the compounds according to the invention have a higher herbicidal activity than the compounds of the greatest structural similarity known from the closest prior art.

[2] = system: Alopecurus myosuroides; test: as above; settings: dosage 320 g/ha, visual assessment after 3 weeks (Table A)
Excerpt: as §1

[3] = system: Amaranthus retroflexus; test: as above; settings: 504 h, read-out: Herbicidal action against AMARE; for pest or weed control at 320 g/ha: dosage 320 g/ha, visual assessment after 3 weeks (Table A); for pest or weed control at 80 g/ha: dosage 80 g/ha, visual assessment after 3 weeks (Table B)
Excerpt: as §1

[4] = system: Echinochloa crus galli; test: as above; settings: Echinochloa, 504 h, dosage 320 g/ha, visual assessment after 3 weeks (Table A), read-out: Herbicidal action against ECHCG
Excerpt: as §1

[5] = system: Matricaria inodora; test: as above; settings: Tripleurospermum inodorum, 504 h, dosage 320 g/ha, visual assessment after 3 weeks (Table A), read-out: Herbicidal action against MATIN
Excerpt: as §1

[6] = system: Stellaria media; test: as above; settings: 504 h, read-out: Herbicidal action against STEME; for pest or weed control at 320 g/ha: dosage 320 g/ha, visual assessment after 3 weeks (Table A); for pest or weed control at 80 g/ha: dosage 80 g/ha, visual assessment after 3 weeks (Table B)
Excerpt: as §1

[7] = system: Veronica persica; test: as above; settings: 504 h, read-out: Herbicidal action against VERPE; for pest or weed control at 320 g/ha: dosage 320 g/ha, visual assessment after 3 weeks (Table A); for pest or weed control at 80 g/ha: dosage 80 g/ha, visual assessment after 3 weeks (Table B)
Excerpt: as §1

[8] = system: Abutilon theophrasti; test: Post-emergence herbicidal action against harmful plants; settings: 504 h, read-out: Herbicidal action against ABUTH; for pest or weed control at 80 g/ha: dosage 80 g/ha, visual rating after about 3 weeks (Table D); for pest or weed control at 20 g/ha: dosage 20 g/ha, visual rating after about 3 weeks (Table F)
Excerpt: (§2) The abbreviations used in the tables below denote: • ABUTH Abutilon theophrasti • AMARE Amaranthus retroflexus • ECHCG Echinochloa crus galli • PHBPU Phartoitis purpureum • STEME Stellaria media • ALOMY Alopecurus myosuroides • AVEFA Avena fatua • MATIN Matricaria inodora • POLCO Fallopia convolvulus • VERPE Veronica persica 1. Pre-emergence Herbicidal Action Against Harmful Plants Seeds of monocotyledonous and dicotyledonous weed and crop plants are placed in sandy loam in wood-fibre pots, covered with soil and cultivated in a greenhouse under good growth conditions. 2 to 3 weeks after sowing, the test plants are treated at the one-leaf stage. The compounds according to the invention, formulated in the form of wettable powders (WP) or as emulsion concentrates (EC), are then sprayed as aqueous suspension or emulsion at a water application rate of 600 to 800 I/ha (converted) with the addition of 0.2% of wetting agent onto the green parts of the plants. After the test plants have been kept in the greenhouse under optimum growth conditions for about 3 weeks, the activity of the preparations is rated visually in comparison to untreated controls (herbicidal activity in percent (%): 100% activity=the plants have died, 0% activity=control plants, —=not tested).

[9] = system: Amaranthus retroflexus; test: as above; settings: 504 h, read-out: Herbicidal action against AMARE; for pest or weed control at 80 g/ha: dosage 80 g/ha, visual rating after about 3 weeks (Table D); for pest or weed control at 20 g/ha: dosage 20 g/ha, visual rating after about 3 weeks (Table F)
Excerpt: as §2

[10] = system: Echinochloa crus galli; test: as above; settings: 504 h, read-out: Herbicidal action against ECHCG; for pest or weed control at 80 g/ha: dosage 80 g/ha, visual rating after about 3 weeks (Table D); for pest or weed control at 20 g/ha: dosage 20 g/ha, visual rating after about 3 weeks (Table F)
Excerpt: as §2

[11] = system: Fallopia convolvulus; test: as above; settings: 504 h, dosage 80 g/ha, visual rating after about 3 weeks (Table D), read-out: Herbicidal action against POLCO
Excerpt: as §2

[12] = system: Phartoitis purpureum; test: as above; settings: 504 h; for pest or weed control at 80 g/ha: dosage 80 g/ha, visual rating after about 3 weeks (Table D), read-out: Herbicidal action against PHBPU; for pest or weed control at 20 g/ha: dosage 20 g/ha, visual rating after about 3 weeks (Table F), read-out: Herbicidal action against PHPBU
Excerpt: as §2

[13] = system: Stellaria media; test: as above; settings: 504 h, read-out: Herbicidal action against STEME; for pest or weed control at 80 g/ha: dosage 80 g/ha, visual rating after about 3 weeks (Table D); for pest or weed control at 20 g/ha: dosage 20 g/ha, visual rating after about 3 weeks (Table F)
Excerpt: as §2

[14] = system: Veronica persica; test: as above; settings: 504 h, read-out: Herbicidal action against VERPE; for pest or weed control at 80 g/ha: dosage 80 g/ha, visual rating after about 3 weeks (Table D); for pest or weed control at 20 g/ha: dosage 20 g/ha, visual rating after about 3 weeks (Table F)
Excerpt: as §2

[15] = system: VIOTR; test: Pre-emergence herbicidal action against harmful plants; settings: dosage 80 g/ha, visual assessment after 3 weeks (Table B)
Excerpt: as §1, with “Seeds” for “The abbreviations used in the tables below denote: • ABUTH Abutilon theophrasti • AMARE Amaranthus retroflexus • ECHCG Echinochloa crus galli • PHBPU Phartoitis purpureum • STEME Stellaria media • ALOMY Alopecurus myosuroides • AVEFA Avena fatua • MATIN Matricaria inodora • POLCO Fallopia convolvulus • VERPE Veronica persica 1. Pre-emergence Herbicidal Action Against Harmful Plants Seeds”

[16] = system: Matricaria inodora; test: Post-emergence herbicidal action against harmful plants; settings: Tripleurospermum inodorum, 504 h, read-out: Herbicidal action against MATIN; for pest or weed control at 20 g/ha: dosage 20 g/ha, visual rating after about 3 weeks (Table F); for pest or weed control at 80 g/ha: dosage 80 g/ha, visual rating after about 3 weeks (Table D)
Excerpt: as §2

[17] = system: VIOTR; test: as above; settings: dosage 20 g/ha, visual rating after about 3 weeks (Table F)
Description: as §2, with “Seeds” for “The abbreviations used in the tables below denote: • ABUTH Abutilon theophrasti • AMARE Amaranthus retroflexus • ECHCG Echinochloa crus galli • PHBPU Phartoitis purpureum • STEME Stellaria media • ALOMY Alopecurus myosuroides • AVEFA Avena fatua • MATIN Matricaria inodora • POLCO Fallopia convolvulus • VERPE Veronica persica 1. Pre-emergence Herbicidal Action Against Harmful Plants Seeds”

[18] = system: Avena fatua; test: Pre-emergence herbicidal action against harmful plants; settings: dosage 320 g/ha, visual assessment after 3 weeks (Table A)
Excerpt: as §1

Row | Compound | pest or weed control at 320 g/ha [1] [%] | pest or weed control at 320 g/ha [3] [%] | pest or weed control at 320 g/ha [4] [%] | pest or weed control at 320 g/ha [5] [%] | pest or weed control at 320 g/ha [6] [%] | pest or weed control at 320 g/ha [7] [%] | pest or weed control at 80 g/ha [8] [%] | pest or weed control at 80 g/ha [9] [%] | pest or weed control at 80 g/ha [10] [%] | pest or weed control at 80 g/ha [11] [%] | pest or weed control at 80 g/ha [12] [%] | pest or weed control at 80 g/ha [13] [%] | pest or weed control at 80 g/ha [14] [%] | pest or weed control at 80 g/ha [1] [%] | pest or weed control at 20 g/ha [12] [%] | pest or weed control at 20 g/ha [13] [%] | pest or weed control at 20 g/ha [14] [%] | Herbicidal action against VIOTR [17] [%] | further results
1 | CCS(=O)(=O)c1ccc(C(=O)C2=C(O)CCCC2=O)c(Cl)c1OCC(=O)N(C)C [Compound S5, reference compound] | 90 | 100 | 100 | 90 | 90 | 100 | 90 | 80 | 40 | 20 | 60 | 80 | 100 | – | – | – | – | – | Herbicidal action against ALOMY [2]: 0%
2 | CCS(=O)(=O)c1ccc(C(=O)C2=C(O)CCCC2=O)c(C(F)(F)F)c1OC(C)C(=O)NC (stereo not shown) [Compound E11] | – | – | – | – | – | – | – | – | – | – | – | – | – | 90 | 80 | 90 | 100 | 100 | pest or weed control at 80 g/ha [6]: 70%; Herbicidal action against VIOTR [15]: 90%; pest or weed control at 20 g/ha [9]: 100%; pest or weed control at 20 g/ha [16]: 90%
3 | CCS(=O)(=O)c1ccc(C(=O)C2=C(SCC(=O)OC)CCCC2=O)c(Cl)c1OCC(=O)N(C)C [Compound S9, reference compound] | – | – | – | – | – | – | – | – | – | – | – | – | – | 20 | 60 | 70 | 80 | 60 | pest or weed control at 80 g/ha [3]: 40%; pest or weed control at 80 g/ha [7]: 20%; pest or weed control at 20 g/ha [8]: 80%; pest or weed control at 20 g/ha [10]: 90%
4 | CCS(=O)(=O)c1ccc(C(=O)C2=C(O)CCCC2=O)c(Cl)c1OC(C)C(=O)NC (stereo not shown) [Compound S11, reference compound] | – | – | – | – | – | – | – | – | – | – | – | – | – | 70 | 70 | 80 | 90 | 70 | pest or weed control at 80 g/ha [6]: 30%; Herbicidal action against VIOTR [15]: 40%; pest or weed control at 20 g/ha [9]: 90%; pest or weed control at 20 g/ha [16]: 70%
5 | CCN(C)C(=O)COc1c(S(C)(=O)=O)ccc(C(=O)C2=C(O)CCCC2=O)c1Cl [Compound S7, reference compound] | 80 | 100 | 80 | 100 | 90 | 100 | 90 | 70 | 60 | 10 | 90 | 90 | 100 | – | – | – | – | – | Herbicidal action against AVEFA [18]: 0%; pest or weed control at 80 g/ha [16]: 80%
6 | CCN(C)C(=O)COc1c(S(C)(=O)=O)ccc(C(=O)C2=C(O)CCCC2=O)c1C(F)(F)F [Compound E7] | 100 | 100 | 100 | 100 | 100 | 100 | 90 | 100 | 90 | 80 | 100 | 100 | 100 | – | – | – | – | – | Herbicidal action against AVEFA [18]: 80%; pest or weed control at 80 g/ha [16]: 100%
7 | CCS(=O)(=O)c1ccc(C(=O)C2=C(SCC(=O)OC)CCCC2=O)c(C(F)(F)F)c1OCC(=O)N(C)C [Compound E9] | – | – | – | – | – | – | – | – | – | – | – | – | – | 90 | 80 | 90 | 100 | 100 | pest or weed control at 80 g/ha [3]: 90%; pest or weed control at 80 g/ha [7]: 90%; pest or weed control at 20 g/ha [8]: 100%; pest or weed control at 20 g/ha [10]: 90%
8 | CCS(=O)(=O)c1ccc(C(=O)C2=C(O)CCCC2=O)c(C(F)(F)F)c1OCC(=O)N(C)C [Compound E5] | 100 | 100 | 100 | 100 | 90 | 100 | 90 | 80 | 90 | 80 | 90 | 90 | 100 | – | – | – | – | – | Herbicidal action against ALOMY [2]: 100%
